Data on 35 compounds can be found in PubChem BioAssay AID466 (The Scripps Research Institute Molecular Screening Center, 2006).

Activity calls are given as the source filed them. No rule for the calls is given here.

In this assay the target is Sphingosine 1-phosphate receptor 1 (Homo sapiens) (UniProt P21453). The assay can be described thus: potentiators of S1P1 agonist response, dose response, cell-based, potentiator mode, 60K MLSMR set (AID 466). Particulars: S1P1 cell assay, potentiation of agonist response.
Sequence of Sphingosine 1-phosphate receptor 1 (Homo sapiens) (P21453 whole entry, looked up): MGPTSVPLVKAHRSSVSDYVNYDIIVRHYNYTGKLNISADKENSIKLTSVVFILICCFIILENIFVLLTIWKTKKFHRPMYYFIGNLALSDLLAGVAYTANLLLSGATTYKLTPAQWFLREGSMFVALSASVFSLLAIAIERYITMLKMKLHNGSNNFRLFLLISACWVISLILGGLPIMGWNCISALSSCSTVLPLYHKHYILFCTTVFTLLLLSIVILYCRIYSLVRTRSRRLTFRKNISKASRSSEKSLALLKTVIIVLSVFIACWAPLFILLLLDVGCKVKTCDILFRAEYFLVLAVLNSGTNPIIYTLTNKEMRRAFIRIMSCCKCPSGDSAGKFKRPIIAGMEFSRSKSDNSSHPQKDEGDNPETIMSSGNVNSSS
As a reminder, the EC50 is the concentration needed to bring the measured effect to its halfway point. On to `CCC(=NCc1ccc2c(c1)OCO2)c1c(O)n(C2CCCCC2)c(=O)[nH]c1=O`, for which the EC50 was 8.66 µM.
To `COc1ccc(/C(O)=C2/C(=O)C(=O)N(CC3CCCO3)C2c2cccc(OC)c2)cc1` (stereo not given) belongs > 95 µM (inactive).
For the compound `C/C(N)=C(/C#N)C(=O)CSc1nc2cc(Cl)ccc2s1`, the EC50 entry was “inactive”.
Next, `CC(=O)Oc1ccc(N2C(=O)C3C(C2=O)C2(C)C=CC3(C)O2)cc1` (stereo not given): “inactive”; `O=C1C2C3C=CC(CO)(O3)C2C(=O)N1c1ccccc1-c1ccccc1` (stereo not given): 6.82 µM.
`CCCCc1ccc(C2C(C#N)=C(N)SC(N)=C2C#N)s1`: the EC50 result is “inactive”.
As to `COC(=O)CC1SC(=O)NC1=Nc1ccccc1` (stereo not given), the EC50 was > 95 µM (inactive).
On to `CCC(=NC(C)c1ccccc1)c1c(O)n(C)c(=O)n(C)c1=O` (stereo not given), for which the EC50 entry is “inactive”.
`CNc1oc(-c2ccc(OCc3ccccc3)cc2)nc1C#N`: the 50% effective concentration (EC50) is 3.24 µM.
Turning to `CC(C)c1ccc2oc(-c3cc(N)ccc3O)nc2c1`, the EC50 is 9.39 µM.
In the case of `CCOc1ccc(C(C)=O)cc1N1C(=O)C2C3C=CC(O3)C2C1=O` (stereo not given), the EC50 entry was “inactive”.
In the case of `NC(=O)c1ccc(OCC(F)(F)C(F)(F)C(F)(F)C(F)(F)C(F)(F)C(F)F)cc1`, the EC50 is 7.96 µM.
Take `FC(F)(F)c1ccc(N2CCN(c3cc(-c4ccccc4)nc4ncnn34)CC2)nc1`: the EC50 entry was “inactive”.
For `Cc1ccc2[nH]c3c(N4CCCCCC4)ncnc3c2c1`, the EC50 is 4.14 µM.
As for `Cc1cc(N2CCOCC2)nc(NCc2ccccc2)n1`, the EC50 result is “inactive”.
In the case of `CC(C)c1ccc(OCc2nc(-c3ccccn3)no2)c(Br)c1`, the EC50 is 4.43 µM.
As for `CCOC(=O)c1cccc2c1-c1ccccc1/C2=N/O`, the EC50 result was “inactive”.
As for `O=C(C1CCN(S(=O)(=O)c2cccc3cccnc23)CC1)N1CCN(c2ccc(Cl)cc2)CC1`, the EC50 result is “inactive”.
To `COc1ccc(N=c2scc(-c3ccc(S(=O)(=O)N4CCOCC4)cc3)n2CCCO)cc1` belongs “inactive”.
With `COc1ccc(/C=N/O)cc1COc1ccc(NC(C)=O)cc1`, the EC50 was > 95 µM (inactive).
To `Cc1ccc(NC(=O)c2cc(-c3ccco3)on2)cc1C` belongs 5.02 µM.
To `CC1=C(C(=O)OCc2ccc3c(c2)OCO3)C(c2ccccc2)NC(=O)N1` (stereo not given) belongs 3.42 µM; to `CCC(=NCCOc1ccc(Cl)cc1)c1c(O)n(C)c(=O)n(C)c1=O`, 5.34 µM; to `Cc1nn(Cc2ccc(Cl)c(Cl)c2)c(C)c1NC(=O)c1cc(C2CC2)on1`, “inactive”.
`CC1=C(C(=O)OCc2ccc3c(c2)OCO3)C(c2ccc(F)cc2)NC(=O)N1` (stereo not given): the EC50 was 0.631 µM.
To `CCOC(=O)C1CCN(c2ncnc3c2oc2ccccc23)CC1` belongs “inactive”; to `CC1(C)CC(=O)C(C=Nc2ccc3[nH]ncc3c2)=C(O)C1`, 6.01 µM.
To `Cc1[nH]nc2c1C1(C(=O)N(Cc3ccc(Cl)cc3)c3ccccc31)C(C#N)=C(N)O2` (stereo not given) belongs “inactive”; to `Cn1nc(CC(=O)Nc2ccc3c(c2)OCCO3)c2ccccc2c1=O`, 5.94 µM.
Next, `Cc1nn(Cc2ccc(Cl)c(Cl)c2)c(C)c1NC(=O)c1cc(-c2ccco2)on1`: 5.57 µM; `c1ccc2c(c1)CCN(c1ncnc3c1[nH]c1ccccc13)C2`: 1.18 µM.
Consider `C/C(N)=C(/C#N)C(=O)CSc1nnc(SCc2ccc(Cl)cc2)s1`, for which the EC50 is 9.63 µM.
To `CC(=O)c1ccc(NC(=O)N2CCN(c3cccc(Cl)c3)CC2)cc1` belongs 9.84 µM; to `COc1ccc(N2C(=O)CC(Sc3ncn[nH]3)C2=O)c(OC)c1` (stereo not given), “inactive”; to `CC(C)Cn1c(N)c(C(=O)CSc2ccc3c(c2)OCCO3)c(=O)n(C)c1=O`, “inactive”.
